# From ChEMBL document CHEMBL2434896, “Carbonic anhydrase inhibitors. Synthesis of heterocyclic 4-substituted pyridine-3-sulfonamide derivatives and their inhibition of the human cytosolic isozymes I and II and transmembrane tumor-associated isozymes IX and XII” (Eur J Med Chem, 2013)
# Activity calls are given as the source filed them. The calls are words filed in the database; no cut-off is given here.
# Key:
# SN12C = assay: Growth inhibition of human SN12C cells at 10 uM after 48 hrs by sulforhodamine B assay; assay type: functional
# SF-268 = assay: Growth inhibition of human SF268 cells at 10 uM after 48 hrs by sulforhodamine B assay; assay type: functional
# HOP-62 = assay: Growth inhibition of human HOP62 cells at 10 uM after 48 hrs by sulforhodamine B assay; assay type: functional
# HCT-15 = assay: Growth inhibition of human HCT15 cells at 10 uM after 48 hrs by sulforhodamine B assay; assay type: functional
# HT-29 = assay: Growth inhibition of human HT-29 cells at 10 uM after 48 hrs by sulforhodamine B assay; assay type: functional
# SNB-19 = assay: Growth inhibition of human SNB19 cells at 10 uM after 48 hrs by sulforhodamine B assay; assay type: functional
# SF-539 = assay: Growth inhibition of human SF539 cells at 10 uM after 48 hrs by sulforhodamine B assay; assay type: functional
# HL-60(TB) = assay: Growth inhibition of human HL-60(TB) cells at 10 uM after 48 hrs by sulforhodamine B assay; assay type: functional; conditions: HL-60, 48 h, read-out: GI
# SF-295 = assay: Growth inhibition of human SF295 cells at 10 uM after 48 hrs by sulforhodamine B assay; assay type: functional
# CCRF-CEM = assay: Growth inhibition of human CCRF-CEM cells at 10 uM after 48 hrs by sulforhodamine B assay; assay type: functional; conditions: read-out: GI
# MDA-MB-435 = assay: Growth inhibition of human MDA-MB-435 cells at 10 uM after 48 hrs by sulforhodamine B assay; assay type: functional
# NCI-H23 = assay: Growth inhibition of human NCI-H23 cells at 10 uM after 48 hrs by sulforhodamine B assay; assay type: functional
# SK-MEL-5 = assay: Growth inhibition of human SK-MEL-5 cells at 10 uM after 48 hrs by sulforhodamine B assay; assay type: functional
# U-251 = assay: Growth inhibition of human U251 cells at 10 uM after 48 hrs by sulforhodamine B assay; assay type: functional; conditions: U-251, 48 h, read-out: GI
# ACHN = assay: Growth inhibition of human ACHN cells at 10 uM after 48 hrs by sulforhodamine B assay; assay type: functional
# NCI/ADR-RES = assay: Growth inhibition of human NCI-ADR-RES cells at 10 uM after 48 hrs by sulforhodamine B assay; assay type: functional
# UACC-257 = assay: Growth inhibition of human UACC257 cells at 10 uM after 48 hrs by sulforhodamine B assay; assay type: functional; conditions: UACC-257, 48 h, read-out: GI
# MDA-MB-468 = assay: Growth inhibition of human MDA-MB-468 cells at 10 uM after 48 hrs by sulforhodamine B assay; assay type: functional
# 786-0 = assay: Growth inhibition of human 786-0 cells at 10 uM after 48 hrs by sulforhodamine B assay; assay type: functional
# RPMI-8226 = assay: Growth inhibition of human RPMI8226 cells at 10 uM after 48 hrs by sulforhodamine B assay; assay type: functional; conditions: RPMI-8226, 48 h, read-out: GI
# EKVX = assay: Growth inhibition of human EKVX cells at 10 uM after 48 hrs by sulforhodamine B assay; assay type: functional
# SNB-75 = assay: Growth inhibition of human SNB75 cells at 10 uM after 48 hrs by sulforhodamine B assay; assay type: functional; conditions: SNB-75, 48 h, read-out: GI
# SW-620 = assay: Growth inhibition of human SW620 cells at 10 uM after 48 hrs by sulforhodamine B assay; assay type: functional
# SK-MEL-2 = assay: Growth inhibition of human SK-MEL-2 cells at 10 uM after 48 hrs by sulforhodamine B assay; assay type: functional
# KM12 = assay: Growth inhibition of human KM12 cells at 10 uM after 48 hrs by sulforhodamine B assay; assay type: functional
# M14 = assay: Growth inhibition of human M14 cells at 10 uM after 48 hrs by sulforhodamine B assay; assay type: functional
# Carbonic anhydrase 9 = Carbonic anhydrase 9 (Homo sapiens, UniProt Q16790); assay: Inhibition of human carbonic anhydrase 9 after 15 mins by stopped flow CO2 hydration assay
# NCI-H522 = assay: Growth inhibition of human NCI-H522 cells at 10 uM after 48 hrs by sulforhodamine B assay; assay type: functional; conditions: NCI-H522, 48 h, read-out: GI
# MOLT-4 = assay: Growth inhibition of human MOLT4 cells at 10 uM after 48 hrs by sulforhodamine B assay; assay type: functional; conditions: MOLT-4, 48 h, read-out: GI
# RXF 393 = assay: Growth inhibition of human RXF393 cells at 10 uM after 48 hrs by sulforhodamine B assay; assay type: functional
# SK-OV-3 = assay: Growth inhibition of human SKOV3 cells at 10 uM after 48 hrs by sulforhodamine B assay; assay type: functional
# OVCAR-5 = assay: Growth inhibition of human OVCAR5 cells at 10 uM after 48 hrs by sulforhodamine B assay; assay type: functional
# HOP-92 = assay: Growth inhibition of human HOP92 cells at 10 uM after 48 hrs by sulforhodamine B assay; assay type: functional; conditions: HOP-92, 48 h, read-out: GI
# LOX IMVI = assay: Growth inhibition of human LOXIMVI cells at 10 uM after 48 hrs by sulforhodamine B assay; assay type: functional
# SR = assay: Growth inhibition of human SR cells at 10 uM after 48 hrs by sulforhodamine B assay; assay type: functional; conditions: read-out: GI
# T47D = assay: Growth inhibition of human T47D cells at 10 uM after 48 hrs by sulforhodamine B assay; assay type: functional
# NCI-H460 = assay: Growth inhibition of human NCI-H460 cells at 10 uM after 48 hrs by sulforhodamine B assay; assay type: functional
# BT-549 = assay: Growth inhibition of human BT549 cells at 10 uM after 48 hrs by sulforhodamine B assay; assay type: functional
# DU-145 = assay: Growth inhibition of human DU145 cells at 10 uM after 48 hrs by sulforhodamine B assay; assay type: functional
# HCT-116 = assay: Growth inhibition of human HCT116 cells at 10 uM after 48 hrs by sulforhodamine B assay; assay type: functional
# TK-10 = assay: Growth inhibition of human TK10 cells at 10 uM after 48 hrs by sulforhodamine B assay; assay type: functional
# CAKI-1 = assay: Growth inhibition of human CAKI-1 cells at 10 uM after 48 hrs by sulforhodamine B assay; assay type: functional
# OVCAR-3 = assay: Growth inhibition of human OVCAR3 cells at 10 uM after 48 hrs by sulforhodamine B assay; assay type: functional
# UACC-62 = assay: Growth inhibition of human UACC62 cells at 10 uM after 48 hrs by sulforhodamine B assay; assay type: functional; conditions: UACC-62, 48 h, read-out: GI
# Hs-578T = assay: Growth inhibition of human Hs 578T cells at 10 uM after 48 hrs by sulforhodamine B assay; assay type: functional
# SK-MEL-28 = assay: Growth inhibition of human SK-MEL-28 cells at 10 uM after 48 hrs by sulforhodamine B assay; assay type: functional, cell-based
# [1] = Growth inhibition of human HCC2998 cells at 10 uM after 48 hrs by sulforhodamine B assay; assay type: functional; conditions: HCC 2998, 48 h, read-out: GI
# MCF7 = assay: Growth inhibition of human MCF7 cells at 10 uM after 48 hrs by sulforhodamine B assay; assay type: functional
# COLO 205 = assay: Growth inhibition of human COLO205 cells at 10 uM after 48 hrs by sulforhodamine B assay; assay type: functional
# OVCAR-8 = assay: Growth inhibition of human OVCAR8 cells at 10 uM after 48 hrs by sulforhodamine B assay; assay type: functional
# A549 = assay: Growth inhibition of human A549/ATCC cells at 10 uM after 48 hrs by sulforhodamine B assay; assay type: functional
# NCI-H226 = assay: Growth inhibition of human NCI-H226 cells at 10 uM after 48 hrs by sulforhodamine B assay; assay type: functional
# MDA-MB-231 = assay: Growth inhibition of human MDA-MB-231 cells at 10 uM after 48 hrs by sulforhodamine B assay; assay type: functional; conditions: MDA-MB-231, 48 h, read-out: GI
compound,measurement,setting,value
CSc1nc(N)n(-c2ccncc2S(N)(=O)=O)n1,growth inhibition (GI),SN12C,inactive
same,growth inhibition (GI),SF-268,inactive
same,growth inhibition (GI),HOP-62,inactive
same,growth inhibition (GI),HCT-15,inactive
same,growth inhibition (GI),HT-29,inactive
same,growth inhibition (GI),SNB-19,inactive
same,growth inhibition (GI),SF-539,inactive
same,inhibition of growth at 10 µM,HL-60(TB),3%
same,growth inhibition (GI),SF-295,inactive
same,inhibition of growth at 10 µM,CCRF-CEM,8%
same,growth inhibition (GI),MDA-MB-435,inactive
same,growth inhibition (GI),NCI-H23,inactive
same,growth inhibition (GI),SK-MEL-5,inactive
same,inhibition of growth at 10 µM,U-251,6%
same,growth inhibition (GI),ACHN,inactive
same,growth inhibition (GI),NCI/ADR-RES,inactive
same,inhibition of growth at 10 µM,UACC-257,7%
same,growth inhibition (GI),MDA-MB-468,inactive
same,growth inhibition (GI),786-0,inactive
same,inhibition of growth at 10 µM,RPMI-8226,2%
same,growth inhibition (GI),EKVX,inactive
same,inhibition of growth at 10 µM,SNB-75,7%
same,growth inhibition (GI),SW-620,inactive
same,growth inhibition (GI),SK-MEL-2,inactive
same,growth inhibition (GI),KM12,inactive
same,growth inhibition (GI),M14,inactive
same,Ki,Carbonic anhydrase 9,65.4 nM
same,inhibition of growth at 10 µM,NCI-H522,1%
same,inhibition of growth at 10 µM,MOLT-4,1%
same,growth inhibition (GI),RXF 393,inactive
same,growth inhibition (GI),SK-OV-3,inactive
same,growth inhibition (GI),OVCAR-5,inactive
same,inhibition of growth at 10 µM,HOP-92,20%
same,growth inhibition (GI),LOX IMVI,inactive
same,inhibition of growth at 10 µM,SR,10%
same,growth inhibition (GI),T47D,inactive
same,growth inhibition (GI),NCI-H460,inactive
same,growth inhibition (GI),BT-549,inactive
same,growth inhibition (GI),DU-145,inactive
same,growth inhibition (GI),HCT-116,inactive
same,growth inhibition (GI),TK-10,inactive
same,growth inhibition (GI),CAKI-1,inactive
same,growth inhibition (GI),OVCAR-3,inactive
same,inhibition of growth at 10 µM,UACC-62,4%
same,growth inhibition (GI),Hs-578T,inactive
same,growth inhibition (GI),SK-MEL-28,inactive
same,inhibition of growth at 10 µM,[1],10%
same,growth inhibition (GI),MCF7,inactive
same,growth inhibition (GI),COLO 205,inactive
same,growth inhibition (GI),OVCAR-8,inactive
same,growth inhibition (GI),A549,inactive
same,growth inhibition (GI),NCI-H226,inactive
same,inhibition of growth at 10 µM,MDA-MB-231,1%
